Experimental data as given in patent US9487488B2, “Sulfonamide compound” (MITSUBISHI TANABE PHARMA CORPORATION, priority 2012, dated 2016).

Target: human TRPM8 (Homo sapiens (Human), UniProt Q7Z2W7)
Assay: TRPM8 inhibition assay (menthol-induced calcium influx, FDSS)
Format: cell-based
Settings: HEK293 cells stably expressing human TRPM8; 100 μmol/L menthol; Fura-2AM calcium signal; read-out: TRPM8 Blocking Test (IC50/nmol/L)
Experimental: The functional activity of a test compound was determined by measuring change in intracellular calcium concentration using a calcium sensitive fluorescent dye. The change in fluorescent signal was measured by the cell imaging technology by Hamamatsu Photonics's Functional Drug Screening System (FDSS).
HEK293 cells stably expressing human TRPM8 were grown in a flask. On assay day, the culture medium was removed from the flask, and cells were washed with phosphate-buffered saline (PBS) and harvested with PBS containing 2 mmol/L of ethylenediaminetetraacetic acid disodium salt (EDTA-2Na). […] Subsequently, suspended 20,000 to 50,000 cells per well were incubated with a test compound (at varying concentrations) in each well at 37° C. for 20 minutes. Change in intracellular calcium concentration evoked by 100 μmol/L of menthol was measured for 2 minutes using FDSS. […] The concentration-response curve was generated using the average of quadruplicate wells for each data point.

Sequence of human TRPM8 (Q7Z2W7 whole entry): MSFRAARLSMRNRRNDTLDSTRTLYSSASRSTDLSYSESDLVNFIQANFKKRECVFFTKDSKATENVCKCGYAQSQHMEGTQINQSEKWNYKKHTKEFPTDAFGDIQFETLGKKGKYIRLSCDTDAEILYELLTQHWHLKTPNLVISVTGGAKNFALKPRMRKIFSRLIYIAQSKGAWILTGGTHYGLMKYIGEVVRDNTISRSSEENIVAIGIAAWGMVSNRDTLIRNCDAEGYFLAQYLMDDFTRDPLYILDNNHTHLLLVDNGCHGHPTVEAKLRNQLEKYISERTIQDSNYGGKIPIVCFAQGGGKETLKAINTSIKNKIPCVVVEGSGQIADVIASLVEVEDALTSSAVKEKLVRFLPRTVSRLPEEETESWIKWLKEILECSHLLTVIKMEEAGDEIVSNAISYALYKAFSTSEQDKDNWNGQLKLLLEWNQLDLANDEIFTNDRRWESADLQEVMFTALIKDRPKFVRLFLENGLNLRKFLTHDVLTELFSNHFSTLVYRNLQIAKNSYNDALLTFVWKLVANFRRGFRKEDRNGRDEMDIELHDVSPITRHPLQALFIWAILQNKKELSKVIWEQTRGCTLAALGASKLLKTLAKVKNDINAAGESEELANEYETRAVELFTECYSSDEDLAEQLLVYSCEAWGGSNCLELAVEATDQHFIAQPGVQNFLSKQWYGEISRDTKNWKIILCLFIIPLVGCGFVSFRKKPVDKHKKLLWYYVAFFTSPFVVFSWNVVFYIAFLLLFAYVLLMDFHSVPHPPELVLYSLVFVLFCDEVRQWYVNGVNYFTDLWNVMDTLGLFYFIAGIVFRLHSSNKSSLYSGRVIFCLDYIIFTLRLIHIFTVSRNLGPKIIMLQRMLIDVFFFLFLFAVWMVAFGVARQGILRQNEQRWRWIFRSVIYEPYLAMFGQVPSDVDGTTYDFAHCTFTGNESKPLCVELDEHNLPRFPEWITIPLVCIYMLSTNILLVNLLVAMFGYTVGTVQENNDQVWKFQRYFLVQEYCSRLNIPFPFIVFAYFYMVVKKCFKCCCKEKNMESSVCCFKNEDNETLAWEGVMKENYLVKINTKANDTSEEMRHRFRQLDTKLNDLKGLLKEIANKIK

O=c1[nH]c(-c2ccc(S(=O)(=O)N(Cc3ccc(OC(F)(F)F)cc3)c3ncc4ccccc4c3C3CC3)cc2)no1 [Example 7, N-(4-cyclopropylisoquinolin-3-yl)-4-(5-oxo-4,5-dihydro-1,2,4-oxadiazol-3-yl)-N-[4-(trifluoromethoxy)benzyl]benzenesulfonamide]
IC50: 1 nmol/L

CC(=O)NCc1ccc(S(=O)(=O)N(Cc2ccc(OC(F)(F)F)cc2)c2ncc3ccccc3c2C2CC2)cc1 [Example 10, N-[4-({(4-cyclopropylisoquinolin-3-yl)[4-(trifluoromethoxy)benzyl]amino}sulfonyl)benzyl]acetamide]
IC50: 23.9 nmol/L

O=S(=O)(c1ccc(-c2ncn[nH]2)nc1)N(Cc1ccc(OC(F)(F)F)cc1)c1ncc2ccccc2c1C(F)(F)F [Example 28]
IC50: 3.5 nmol/L

O=c1[nH]c(-c2ccc(S(=O)(=O)N(Cc3ccc(OC(F)(F)F)cc3)c3ncc4ccccc4c3C3CC3)cn2)no1 [Example 9, N-(4-cyclopropylisoquinolin-3-yl)-6-(5-oxo-4,5-dihydro-1,2,4-oxadiazol-3-yl)-N-[4-(trifluoromethoxy)benzyl]pyridine-3-sulfonamide]
IC50: 1.1 nmol/L

Cc1c(N(Cc2ccc(OC(F)(F)F)cc2)S(=O)(=O)c2ccc(-c3nnn[nH]3)cc2)nc(C2CC2)c2ccccc12 [Example 14]
IC50: 0.7 nmol/L

O=c1[nH]c(-c2ccc(S(=O)(=O)N(Cc3ccc(OC(F)(F)F)cc3)c3ncc4ccccc4c3C(F)(F)F)cc2)no1 [Example 8, 4-(5-oxo-4,5-dihydro-1,2,4-oxadiazol-3-yl)-N-[4-(trifluoromethoxy)benzyl]-N-[4-(trifluoromethyl)isoquinolin-3-yl]benzenesulfonamide]
IC50: 2.3 nmol/L

O=S(=O)(c1ccc(-c2nnn[nH]2)cc1)N(Cc1ccc(OC(F)(F)F)cc1)c1ncc2ccccc2c1C(F)(F)F [Example 15]
IC50: 2 nmol/L

O=c1[nH][nH]c2cc(S(=O)(=O)N(Cc3ccc(OC(F)(F)F)cc3)c3ncc4ccccc4c3C3CC3)ccc12 [Example 13, N-(4-cyclopropylisoquinolin-3-yl)-3-oxo-N-[4-(trifluoromethoxy)benzyl]-2,3-dihydro-1H-indazole-6-sulfonamide]
IC50: 4.3 nmol/L

CN(C)c1cc(S(=O)(=O)N(Cc2ccc(OC(F)(F)F)cc2)c2ncc3ccccc3c2C2CC2)ccc1C(=O)O [Example 45]
IC50: 2.9 nmol/L

Cc1cc(S(=O)(=O)N(Cc2ccc(C(F)(F)F)cn2)c2ncc3ccccc3c2C2CC2)ccc1-c1ncn[nH]1 [Example 26]
IC50: 1 nmol/L

Cc1n[nH]c(-c2ccc(S(=O)(=O)N(Cc3ccc(C(F)(F)F)cn3)c3ncc4ccccc4c3C3CC3)cc2)n1 [Example 25]
IC50: 0.7 nmol/L

CC(C)c1cc(S(=O)(=O)N(Cc2ccc(OC(F)(F)F)cc2)c2ncc3ccccc3c2C(F)(F)F)ccc1C(=O)O [Example 56]
IC50: 6.6 nmol/L

O=C(O)c1ccc(S(=O)(=O)N(Cc2ccc(OC(F)(F)F)cc2)c2ncc3ccccc3c2C2CC2)cc1Br [Example 48]
IC50: 6.3 nmol/L
